In patent US20250163104A1, “MACROCYCLIC IMMUNOMODULATORS” (priority 2021, published 2025):
Where a SMILES comes first, the peptide text is derived from it. Bridges are numbered along the chain shown (N, C = ends). [ ]: non-standard residue; d: D form. The star is where a group is joined. ξ: configuration not given here. Bip = N[C@@H](Cc1ccc(-c2ccccc2)cc1)C(=O)O; Phe(3-Me) = Cc1cccc(C[C@H](N)C(=O)O)c1; hArg = N=C(N)NCCCC[C@H](N)C(=O)O; Cha = N[C@@H](CC1CCCCC1)C(=O)O; Cit = NC(=O)NCCC[C@H](N)C(=O)O; Thr(3ξ) = CC(O)[C@H](N)C(=O)O; Carboxymethyl = O=C(O)C*; Orn = NCCC[C@H](N)C(=O)O; Dab = NCC[C@H](N)C(=O)O

target: T1, human PD-1 / PD-L1-Ig binding on Jurkat cell line over-expressing human PD-1 (Jurkat-PD-1) (Homo sapiens, UniProt Q15116); experiment: Jurkat-PD-1 Cell Binding High-Content Screening Assay (CBA); type: cell-based; settings: Jurkat-PD-1 cells, PE-labeled PD-L1-Ig 20 nM final; read-out: Jurkat HPD1_PDL1 IC50
T1 construct: expressed in transfected cells; host or cells: Jurkat
T1 sequence (Q15116 25-288): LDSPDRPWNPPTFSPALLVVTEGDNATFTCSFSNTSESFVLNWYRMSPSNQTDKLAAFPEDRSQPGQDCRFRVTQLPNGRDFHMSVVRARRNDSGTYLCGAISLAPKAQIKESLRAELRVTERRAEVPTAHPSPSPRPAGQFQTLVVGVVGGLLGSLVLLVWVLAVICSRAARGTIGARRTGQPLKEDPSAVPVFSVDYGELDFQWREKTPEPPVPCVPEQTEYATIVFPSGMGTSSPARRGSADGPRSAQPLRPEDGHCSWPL
In short: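 Read-out: high-content imaging of PE-tagged PD-L1-Ig bound to Jurkat cells overexpressing human PD-1, after fixation with 4% paraformaldehyde and Hoechst 33342 nuclear staining. Ligand was used at 20 nM final for 1 hour, after a 2 h compound exposure at 37° C in serum-containing DMEM.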

Row | SMILES | IC50
1 | Cc1cccc(C[C@@H]2NC(=O)[C@H](CC(=O)O)NC(=O)[C@H](Cc3ccc(OCC(=O)O)cc3)NC(=O)[C@H](CCCCNC(=N)N)NC(=O)CSC[C@@H](C(=O)N[C@@H](CCCCN)C(=O)N[C@@H](CO)C(N)=O)NC(=O)[C@H](CO)NC(=O)[C@H](C(C)C)NC(=O)[C@H](CC3CCCCC3)NC(=O)[C@H](CCN)NC(=O)[C@@H](CC(C)C)NC(=O)[C@H](CCCN)NC(=O)[C@H](CCCNC(N)=O)NC(=O)[C@H](Cc3ccc(-c4ccccc4)cc3)NC(=O)[C@H](C(C)C)NC2=O)c1 [Compound 2594] ({CH2CO}-[hArg]Y(Carboxymethyl)D[Phe(3-Me)]V[Bip][Cit][Orn][dL][Dab][Cha]VSCKS-NH2; thioether N-14) | 0.0131 µM
2 | Cc1cccc(C[C@@H]2NC(=O)[C@H](CC(=O)O)NC(=O)[C@H](Cc3ccc(OCC(=O)O)cc3)NC(=O)[C@H](CCCNC(=N)N)NC(=O)CSC[C@@H](C(=O)N[C@@H](CO)C(N)=O)NC(=O)[C@H](CO)NC(=O)[C@H](C(C)O)NC(=O)[C@H](CC3CCCCC3)NC(=O)[C@H](CCN)NC(=O)[C@@H](CC(C)C)NC(=O)[C@H](CCCN)NC(=O)[C@H](CCCNC(N)=O)NC(=O)[C@H](Cc3ccc(-c4ccccc4)cc3)NC(=O)[C@H](C(C)C)NC2=O)c1 (stereo partly drawn) [Compound 2598] ({CH2CO}-RY(Carboxymethyl)D[Phe(3-Me)]V[Bip][Cit][Orn][dL][Dab][Cha][Thr(3ξ)]SCS-NH2; thioether N-14) | 0.014 µM
3 | CC(C)C[C@H]1NC(=O)[C@H](CCCN)NC(=O)[C@H](C(C)C)NC(=O)[C@H](Cc2ccc(-c3ccccc3)cc2)NC(=O)[C@H](C(C)C)NC(=O)[C@H](Cc2c[nH]c3ccccc23)NC(=O)[C@H](CC(=O)O)NC(=O)[C@H](Cc2ccc(OCC(=O)O)cc2)NC(=O)[C@H](C(C)O)NC(=O)CSC[C@@H](C(N)=O)NC(=O)[C@H](C(C)O)NC(=O)[C@H](C(C)C)NC(=O)[C@H](CC2CCCCC2)NC(=O)[C@H](CCN)NC1=O (stereo partly drawn) [Compound 2599] ({CH2CO}-[Thr(3ξ)]Y(Carboxymethyl)DWV[Bip]V[Orn][dL][Dab][Cha]V[Thr(3ξ)]C-NH2; thioether N-14) | 0.0178 µM
4 | CC(C)C[C@@H]1NC(=O)[C@H](Cc2c[nH]c3ccccc23)NC(=O)[C@H](CC(=O)O)NC(=O)[C@H](Cc2ccc(OCC(=O)O)cc2)NC(=O)[C@H](C(C)O)NC(=O)CSC[C@@H](C(N)=O)NC(=O)[C@H](CO)NC(=O)[C@H](C(C)C)NC(=O)[C@H](CC2CCCCC2)NC(=O)[C@H](CCC(=O)O)NC(=O)[C@@H](CC(C)C)NC(=O)[C@H](Cc2cnc[nH]2)NC(=O)[C@H](C(C)C)NC(=O)[C@H](Cc2ccc(-c3ccccc3)cc2)NC1=O (stereo partly drawn) [Compound 2608] ({CH2CO}-[Thr(3ξ)]Y(Carboxymethyl)DWL[Bip]VH[dL]E[Cha]VSC-NH2; thioether N-14) | 0.118 µM
5 | CC(C)C[C@@H]1NC(=O)[C@H](Cc2c[nH]c3ccccc23)NC(=O)[C@H](CC(=O)O)NC(=O)[C@H](Cc2ccc(OCC(=O)O)cc2)NC(=O)[C@H](C(C)O)NC(=O)CSC[C@@H](C(N)=O)NC(=O)[C@H](CO)NC(=O)[C@H](C(C)C)NC(=O)[C@H](CC2CCCCC2)NC(=O)[C@H](Cc2cnc[nH]2)NC(=O)[C@@H](CC(C)C)NC(=O)[C@H](CCC(=O)O)NC(=O)[C@H](C(C)C)NC(=O)[C@H](Cc2ccc(-c3ccccc3)cc2)NC1=O (stereo partly drawn) [Compound 2609] ({CH2CO}-[Thr(3ξ)]Y(Carboxymethyl)DWL[Bip]VE[dL]H[Cha]VSC-NH2; thioether N-14) | 0.0891 µM

Results, then the compound that gave them:

Row | IC50 | SMILES
6 | 0.0099 µM | CC(=O)NCCCC[C@@H]1NC(=O)CSC[C@@H](C(=O)N[C@@H](CO)C(N)=O)NC(=O)[C@H](C(C)O)NC(=O)[C@H](C(C)C)NC(=O)[C@H](CC2CCCCC2)NC(=O)[C@H](CCN)NC(=O)[C@@H](CC(C)C)NC(=O)[C@H](CCCN)NC(=O)[C@H](CCCNC(N)=O)NC(=O)[C@H](Cc2ccc(-c3ccccc3)cc2)NC(=O)[C@H](C(C)C)NC(=O)[C@H](Cc2cccc(C)c2)NC(=O)[C@H](CC(=O)O)NC(=O)[C@H](Cc2ccc(OCC(=O)O)cc2)NC1=O (stereo partly drawn) [Compound 2595] ({CH2CO}-K(Ac)Y(Carboxymethyl)D[Phe(3-Me)]V[Bip][Cit][Orn][dL][Dab][Cha]V[Thr(3ξ)]CS-NH2; thioether N-14)
7 | 0.0129 µM | Cc1cccc(C[C@@H]2NC(=O)[C@H](CC(=O)O)NC(=O)[C@H](Cc3ccc(OCC(=O)O)cc3)NC(=O)[C@H](CCCNC(=N)N)NC(=O)CSC[C@@H](C(=O)N[C@@H](CO)C(N)=O)NC(=O)[C@H](CO)NC(=O)[C@H](C(C)C)NC(=O)[C@H](CC3CCCCC3)NC(=O)[C@H](CCCNC(=N)N)NC(=O)[C@@H](CC(C)C)NC(=O)[C@H](CCCN)NC(=O)[C@H](CCCNC(N)=O)NC(=O)[C@H](Cc3ccc(-c4ccccc4)cc3)NC(=O)[C@H](C(C)C)NC2=O)c1 [Compound 2597] ({CH2CO}-RY(Carboxymethyl)D[Phe(3-Me)]V[Bip][Cit][Orn][dL]R[Cha]VSCS-NH2; thioether N-14)
8 | 0.0126 µM | CC(C)C[C@H]1NC(=O)[C@H](CCCN)NC(=O)[C@H](C(C)C)NC(=O)[C@H](Cc2ccc(-c3ccccc3)cc2)NC(=O)[C@H](C(C)C)NC(=O)[C@H](Cc2c[nH]c3ccccc23)NC(=O)[C@H](CC(=O)O)NC(=O)[C@H](Cc2ccc(OCC(=O)O)cc2)NC(=O)[C@H](C(C)O)NC(=O)CSC[C@@H](C(=O)N[C@@H](CCN)C(N)=O)NC(=O)[C@H](C(C)O)NC(=O)[C@H](C(C)C)NC(=O)[C@H](CC2CCCCC2)NC(=O)[C@H](CCN)NC1=O (stereo partly drawn) [Compound 2601] ({CH2CO}-[Thr(3ξ)]Y(Carboxymethyl)DWV[Bip]V[Orn][dL][Dab][Cha]V[Thr(3ξ)]C[Dab]-NH2; thioether N-14)
9 | 0.0176 µM | CC(C)C[C@H]1NC(=O)[C@H](CCCN)NC(=O)[C@H](C(C)C)NC(=O)[C@H](Cc2ccc(-c3ccccc3)cc2)NC(=O)[C@H](C(C)C)NC(=O)[C@H](Cc2c[nH]c3ccccc23)NC(=O)[C@H](CC(=O)O)NC(=O)[C@H](Cc2ccc(OCC(=O)O)cc2)NC(=O)[C@H](C(C)O)NC(=O)CSC[C@@H](C(=O)N[C@@H](CO)C(=O)O)NC(=O)[C@H](C(C)O)NC(=O)[C@H](C(C)C)NC(=O)[C@H](CC2CCCCC2)NC(=O)[C@H](CCN)NC1=O (stereo partly drawn) [Compound 2603] ({CH2CO}-[Thr(3ξ)]Y(Carboxymethyl)DWV[Bip]V[Orn][dL][Dab][Cha]V[Thr(3ξ)]CS-OH; thioether N-14)
10 | 0.234 µM | CC(C)C[C@@H]1NC(=O)[C@H](Cc2c[nH]c3ccccc23)NC(=O)[C@H](CC(=O)O)NC(=O)[C@H](Cc2ccc(OCC(=O)O)cc2)NC(=O)[C@H](C(C)O)NC(=O)CSC[C@@H](C(N)=O)NC(=O)[C@H](CO)NC(=O)[C@H](C(C)C)NC(=O)[C@H](CC2CCCCC2)NC(=O)[C@H](Cc2cnc[nH]2)NC(=O)[C@@H](CC(C)C)NC(=O)[C@H](Cc2cnc[nH]2)NC(=O)[C@H](C(C)C)NC(=O)[C@H](Cc2ccc(-c3ccccc3)cc2)NC1=O (stereo partly drawn) [Compound 2604] ({CH2CO}-[Thr(3ξ)]Y(Carboxymethyl)DWL[Bip]VH[dL]H[Cha]VSC-NH2; thioether N-14)
11 | 0.0189 µM | Cc1cccc(C[C@@H]2NC(=O)[C@H](CC(=O)O)NC(=O)[C@H](Cc3ccc(OCC(=O)O)cc3)NC(=O)[C@H](C(C)O)NC(=O)CSC[C@@H](C(N)=O)NC(=O)[C@H](C(C)O)NC(=O)[C@H](C(C)C)NC(=O)[C@H](CC3CCCCC3)NC(=O)[C@H](CCN)NC(=O)[C@@H](CC(C)C)NC(=O)[C@H](CCCN)NC(=O)[C@H](C(C)C)NC(=O)[C@H](Cc3ccc(-c4ccccc4)cc3)NC(=O)[C@H](C(C)C)NC2=O)c1 (stereo partly drawn) [Compound 2605] ({CH2CO}-[Thr(3ξ)]Y(Carboxymethyl)D[Phe(3-Me)]V[Bip]V[Orn][dL][Dab][Cha]V[Thr(3ξ)]C-NH2; thioether N-14)
12 | 0.389 µM | CC(=O)NCCCC[C@@H]1NC(=O)[C@H](Cc2ccc(-c3ccccc3)cc2)NC(=O)[C@H](CC(C)C)NC(=O)[C@H](Cc2c[nH]c3ccccc23)NC(=O)[C@H](CC(=O)O)NC(=O)[C@H](Cc2ccc(OCC(=O)O)cc2)NC(=O)[C@H](C(C)O)NC(=O)CSC[C@@H](C(N)=O)NC(=O)[C@H](C(C)O)NC(=O)[C@H](C(C)C)NC(=O)[C@H](CC2CCCCC2)NC(=O)[C@H](CCC(=O)O)NC(=O)[C@@H](CC(C)C)NC(=O)[C@H](CCC(=O)O)NC1=O (stereo partly drawn) [Compound 2607] ({CH2CO}-[Thr(3ξ)]Y(Carboxymethyl)DWL[Bip]K(Ac)E[dL]E[Cha]V[Thr(3ξ)]C-NH2; thioether N-14)
13 | 0.0783 µM | CC(C)C[C@@H]1NC(=O)[C@H](Cc2c[nH]c3ccccc23)NC(=O)[C@H](CC(=O)O)NC(=O)[C@H](Cc2ccc(OCC(=O)O)cc2)NC(=O)[C@H](C(C)O)NC(=O)CSC[C@@H](C(N)=O)NC(=O)[C@H](CO)NC(=O)[C@H](C(C)C)NC(=O)[C@H](CC2CCCCC2)NC(=O)[C@H](CCC(=O)O)NC(=O)[C@@H](CC(C)C)NC(=O)[C@H](Cc2cnc[nH]2)NC(=O)[C@H](C(C)C)NC(=O)[C@H](Cc2ccc(-c3ccccc3)cc2)NC1=O (stereo partly drawn) [Compound 2610] ({CH2CO}-[Thr(3ξ)]Y(Carboxymethyl)DWL[Bip]VH[dL]E[Cha]VSC-NH2; thioether N-14)

same assay, conditions: read-out: Jurkat HPD1_PDL1 IC50; Jurkat-PD-1 cells, PE-labeled PD-L1-Ig 20 nM final

Row | SMILES | IC50
14 | CC(=O)NCC[C@@H]1NC(=O)[C@H](Cc2ccc(-c3ccccc3)cc2)NC(=O)[C@H](C(C)C)NC(=O)[C@H](Cc2c[nH]c3ccccc23)NC(=O)[C@H](CC(=O)O)NC(=O)[C@H](Cc2ccc(OCC(=O)O)cc2)NC(=O)[C@H](C(C)O)NC(=O)CSC[C@@H](C(N)=O)NC(=O)[C@H](C(C)O)NC(=O)[C@H](C(C)C)NC(=O)[C@H](CC2CCCCC2)NC(=O)[C@H](CCN)NC(=O)[C@@H](CC(C)C)NC(=O)[C@H](CCCN)NC1=O (stereo partly drawn) [Compound 2606] ({CH2CO}-[Thr(3ξ)]Y(Carboxymethyl)DWV[Bip][Dab](Ac)[Orn][dL][Dab][Cha]V[Thr(3ξ)]C-NH2; thioether N-14) | 0.0764 µM
